Key:
pancreatic lipase (PL) [1] = molecular target: T1, pancreatic lipase (PL) (Sus scrofa, UniProt P00591); test: Pancreatic lipase inhibition assay (4-nitrophenyl laurate substrate, absorbance 420 nm); type: biochemical, porcine; conditions: 37 °C, 2 h, pH 8.2 Tris-HCl
T1 construct: lipase (porcine pancreas); purchased Shanghai Yuanye Co., Ltd., Shanghai, China; host or cells: porcine pancreas
T1 sequence (P00591 1-450): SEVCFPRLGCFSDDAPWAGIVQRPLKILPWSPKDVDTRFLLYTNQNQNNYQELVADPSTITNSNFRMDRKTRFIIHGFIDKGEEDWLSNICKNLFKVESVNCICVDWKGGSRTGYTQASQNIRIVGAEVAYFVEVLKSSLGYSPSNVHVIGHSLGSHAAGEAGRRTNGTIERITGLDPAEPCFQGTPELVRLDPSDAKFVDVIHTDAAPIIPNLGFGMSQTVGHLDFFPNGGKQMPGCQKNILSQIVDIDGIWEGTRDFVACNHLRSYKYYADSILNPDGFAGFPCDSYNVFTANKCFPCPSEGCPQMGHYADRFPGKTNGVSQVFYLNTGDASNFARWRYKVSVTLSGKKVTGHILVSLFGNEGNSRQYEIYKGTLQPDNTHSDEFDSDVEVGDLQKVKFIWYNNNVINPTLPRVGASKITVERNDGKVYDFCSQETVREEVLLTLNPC
Description: A total of 250 mg pancreatic lipase was dissolved in 50 mL ultrapure water. After centrifugation at 5000 r/min for 10 min, the supernatant was taken. Then, 80 mg of 4-nitrophenyl laurate was dissolved in 100 mL of 5 mmol/L sodium acetate solution (pH 5.0, containing 1% triton x-100), and dissolved in a boiling water bath. After cooling to room temperature, it was set aside. […] The blank sample solutions were chromatographic methanol solutions containing 2%, 5%, and 10% DMSO.
The activity of PL was determined by referring to the method and making appropriate modifications. A total of 200 μL of different concentrations of four porphyrin compounds, 500 μL of 4-nitrophenyl laurate (0.80 mg/mL), 400 μL of Tris-HCl buffer (pH 8.2, 0.1 mol/L), and 300 μL of pancreatic lipase (5 mg/mL) were reacted in an incubator at 37 °C for 2 h. The reaction solution was centrifuged at 12,000 rpm for 5 min, and 200 μL of the supernatant was added to a 96-well plate.

pancreatic lipase (PL) [2] = molecular target: T1, pancreatic lipase (PL); test: Mode of pancreatic lipase inhibition (reversibility, Lineweaver-Burk kinetics); type: biochemical, porcine; conditions: for Reversibility of PL inhibition: enzyme concentration vs reaction rate plots; for Ki: uncompetitive model, intercept replot
Description: In the formula, v , Vmax, Km, and Ki represent reaction rate, maximum reaction rate, Michaelis constant, and free enzyme inhibition constant, respectively. [S] denotes the substrate concentration. [I] denotes the inhibitor concentration.
By analyzing the relationship between enzyme concentration and reaction rate, a fitting straight line was drawn to determine whether it was reversible.
The concentration of PL was fixed at 5 mg/mL, and the concentration of the substrate 4-nitrophenyl laurate was changed (0.40, 0.80, 1.20, 1.60 mg/mL). By analyzing the relationship between the concentration of different substrates and the reaction rate of the enzyme, the Lineweaver–Burk double reciprocal curve was plotted to determine the inhibition type and calculate the inhibition constant.

**Q.** With `O=C(O)c1ccc(-c2c3nc(c(-c4ccc(C(=O)O)cc4)c4ccc([nH]4)c(-c4ccc(C(=O)O)cc4)c4nc(c(-c5ccc(C(=O)O)cc5)c5ccc2[nH]5)C=C4)C=C3)cc1` [TCPP, meso-Tetra (4-carboxyphenyl) porphine] as the molecule, how does the IC50 (pancreatic lipase (PL) [1]) read?
**A.** 100 µM

**Q.** And the “Reversibility of PL inhibition” value (pancreatic lipase (PL) [2])?
**A.** reversible

**Q.** What about the Vmax (pancreatic lipase (PL) [2]; inhibitor C 12.65 μM) of the same molecule?
**A.** 0.0042 ± 0.0011 ΔOD/min

**Q.** What about the Vmax (pancreatic lipase (PL) [2]; inhibitor C 31.61 μM) of the same molecule?
**A.** 0.0037 ± 0.0008 ΔOD/min

**Q.** And the Vmax (pancreatic lipase (PL) [2]; inhibitor C 63.23 μM)?
**A.** 0.0027 ± 0.0012 ΔOD/min

**Q.** And the Vmax (pancreatic lipase (PL) [2]; inhibitor C 126.45 μM)?
**A.** 0.0015 ± 0.0004 ΔOD/min

**Q.** And the Vmax (pancreatic lipase (PL) [2]; inhibitor C 189.68 μM)?
**A.** 0.0012 ± 0.0003 ΔOD/min

**Q.** And the Ki (pancreatic lipase (PL) [2])?
**A.** 53.49 ± 0.141 µM

**Q.** `Oc1ccc(-c2c3nc(c(-c4ccc(O)cc4)c4ccc([nH]4)c(-c4ccc(O)cc4)c4nc(c(-c5ccc(O)cc5)c5ccc2[nH]5)C=C4)C=C3)cc1` [THPP, 5,10,15,20-Tetrakis (4-hydroxyphenyl) porphyrin] was tested. Which IC50 (pancreatic lipase (PL) [1]) did it give?
**A.** 97.5 µM

**Q.** And the “Reversibility of PL inhibition” value (pancreatic lipase (PL) [2])?
**A.** reversible

**Q.** What about the Vmax (pancreatic lipase (PL) [2]; inhibitor C 36.84 μM) of the same molecule?
**A.** 0.0041 ± 0.0009 ΔOD/min

**Q.** And the Vmax (pancreatic lipase (PL) [2]; inhibitor C 73.67 μM)?
**A.** 0.0035 ± 0.0013 ΔOD/min

**Q.** What about the Vmax (pancreatic lipase (PL) [2]; inhibitor C 147.34 μM) of the same molecule?
**A.** 0.0018 ± 0.0007 ΔOD/min

**Q.** And the Vmax (pancreatic lipase (PL) [2]; inhibitor C 221.01 μM)?
**A.** 0.0012 ± 0.0004 ΔOD/min

**Q.** What about the Vmax (pancreatic lipase (PL) [2]; inhibitor C 294.68 μM) of the same molecule?
**A.** 0.0009 ± 0.0002 ΔOD/min

**Q.** What about the Ki (pancreatic lipase (PL) [2]) of the same molecule?
**A.** 37.03 ± 0.186 µM

**Q.** What does the source list for `Nc1ccc(-c2c3nc(c(-c4ccc(N)cc4)c4ccc([nH]4)c(-c4ccc(N)cc4)c4nc(c(-c5ccc(N)cc5)c5ccc2[nH]5)C=C4)C=C3)cc1` [TAPP, 5,10,15,20-Tetrakis (4-aminophenyl) porphyrin]?
**A.** IC50 (pancreatic lipase (PL) [1]): 236 µM; Reversibility of PL inhibition (pancreatic lipase (PL) [2]): reversible; Vmax (pancreatic lipase (PL) [2]; inhibitor C 118.55 μM): 0.0023 ± 0.0003 ΔOD/min; Vmax (pancreatic lipase (PL) [2]; inhibitor C 177.83 μM): 0.0018 ± 0.0003 ΔOD/min; Vmax (pancreatic lipase (PL) [2]; inhibitor C 237.11 μM): 0.0016 ± 0.0006 ΔOD/min; Vmax (pancreatic lipase (PL) [2]; inhibitor C 266.75 μM): 0.0015 ± 0.0003 ΔOD/min; Vmax (pancreatic lipase (PL) [2]; inhibitor C 296.38 μM): 0.0014 ± 0.0005 ΔOD/min; Ki (pancreatic lipase (PL) [2]): 149.9 ± 0.195 µM

**Q.** Which IC50 (pancreatic lipase (PL) [1]) does the source give for `O=C([O-])c1ccc(C2=C3C=CC(=N3)C(c3ccc(C(=O)[O-])cc3)=C3C=CC(=N3)C(=c3ccc(=C([O-])[O-])cc3)c3ccc([n-]3)C(c3ccc(C(=O)[O-])cc3)=C3C=CC2=N3)cc1.[67Cu+2].[H+].[H+].[H+].[H+]` [Cu-TCPP, Cu (II) meso-Tetra (4-carboxyphenyl) porphine] here?
**A.** 249 µM

**Q.** What about the “Reversibility of PL inhibition” value (pancreatic lipase (PL) [2]) of the same molecule?
**A.** reversible

**Q.** What about the Km (pancreatic lipase (PL) [2]; inhibitor C 29.33 μM) of the same molecule?
**A.** 0.192 ± 0.0049 µM

**Q.** What about the Vmax (pancreatic lipase (PL) [2]; inhibitor C 29.33 μM) of the same molecule?
**A.** 0.0052 ± 0.0013 ΔOD/min

**Q.** What about the Km (pancreatic lipase (PL) [2]; inhibitor C 58.66 μM) of the same molecule?
**A.** 0.164 ± 0.0037 µM

**Q.** And the Vmax (pancreatic lipase (PL) [2]; inhibitor C 58.66 μM)?
**A.** 0.0044 ± 0.0009 ΔOD/min

**Q.** What about the Km (pancreatic lipase (PL) [2]; inhibitor C 117.33 μM) of the same molecule?
**A.** 0.133 ± 0.0022 µM

**Q.** What about the Vmax (pancreatic lipase (PL) [2]; inhibitor C 117.33 μM) of the same molecule?
**A.** 0.0036 ± 0.0006 ΔOD/min

**Q.** What about the Km (pancreatic lipase (PL) [2]; inhibitor C 175.99 μM) of the same molecule?
**A.** 0.112 ± 0.0046 µM

**Q.** And the Vmax (pancreatic lipase (PL) [2]; inhibitor C 175.99 μM)?
**A.** 0.0030 ± 0.0012 ΔOD/min

**Q.** What about the Km (pancreatic lipase (PL) [2]; inhibitor C 234.66 μM) of the same molecule?
**A.** 0.0988 ± 0.0017 µM

**Q.** And the Vmax (pancreatic lipase (PL) [2]; inhibitor C 234.66 μM)?
**A.** 0.0026 ± 0.0005 ΔOD/min

**Q.** And the Ki (pancreatic lipase (PL) [2])?
**A.** 196.15 ± 0.131 µM

Source: PMC12251151, “Understanding Anti-Obesity Potential of Four Porphyrin Compounds by Investigating Pancreatic Lipase Inhibition” (Molecules, 2025)
